# Patent publication EP0184291B1, “Polyether antibiotic A80190” (ELI LILLY AND COMPANY, priority 1984, dated 1986)
# Where a SMILES comes first, the peptide text is derived from it. Bridges are numbered along the chain shown (N, C = ends). [ ]: non-standard residue; d: D form. The star is where a group is joined. Ileψ(thiazoline)Cys = CC[C@H](C)[C@H](N)C1=N[C@H](C(=O)*)CS1; dOrn = NCCC[C@@H](N)C(=O)O
# Assays:
# [1] = tested on: A. macra; assay: Resistance to antibiotics, sensitivity discs on seeded ISP No. 2 agar; type: cell-based
# Experimental: (§1) Resistance to antibiotics was measured by padding antibiotic sensitivity discs onto the surface of seeded ISP No. 2 agar plates.
# (§2) Table III lists the resistance of the strain to various antibiotics at the concentrations indicated and compares it to that of A. macra.
# [2] = tested on: NRRL 15878; assay: as above; type: cell-based, Actinomadura oligospora
# Experimental: as §1, §2
compound,measurement,setting,value
Gentamicin,Resistance to Antibiotics,[1]; Concentration 10 µg,-
same,Resistance to Antibiotics,[2]; Concentration 10 µg,-
CC1(C)S[C@@H]2[C@H](NC(=O)Cc3ccccc3)C(=O)N2[C@H]1C(=O)O [Pencillin G],Resistance to Antibiotics,[1]; Concentration 10 units,+
CO[C@H]1/C=C/O[C@@]2(C)Oc3c(C)c(O)c4c(O)c(c(/C=N/N5CCN(C)CC5)c(O)c4c3C2=O)NC(=O)/C(C)=C\C=C\[C@H](C)[C@H](O)[C@@H](C)[C@@H](O)[C@@H](C)[C@H](OC(C)=O)[C@@H]1C [Rifampin],Resistance to Antibiotics,[1]; Concentration 5 µg,+
CN[C@H](CC(C)C)C(=O)N[C@H]1C(=O)N[C@@H](CC(N)=O)C(=O)N[C@H]2C(=O)N[C@H]3C(=O)N[C@H](C(=O)N[C@H](C(=O)O)c4cc(O)cc(O)c4-c4cc3ccc4O)[C@H](O)c3ccc(c(Cl)c3)Oc3cc2cc(c3O[C@@H]2O[C@H](CO)[C@@H](O)[C@H](O)[C@H]2O[C@H]2C[C@](C)(N)[C@H](O)[C@H](C)O2)Oc2ccc(cc2Cl)[C@H]1O [Vancomycin],Resistance to Antibiotics,[1]; Concentration 30 µg,-
same,Resistance to Antibiotics,[2]; Concentration 30 µg,-
CC(=O)OCC1=C(C(=O)O)N2C(=O)[C@@H](NC(=O)Cc3cccs3)[C@H]2SC1 [Cephalothin],Resistance to Antibiotics,[1]; Concentration 30 µg,+
[H]/N=C(/N)N[C@H]1[C@H](O)[C@@H](O)[C@H](O[C@@H]2O[C@@H](C)[C@](O)(C=O)[C@H]2O[C@@H]2O[C@@H](CO)[C@H](O)[C@@H](O)[C@@H]2NC)[C@@H](N/C(N)=N\[H])[C@@H]1O [Streptomycin],Resistance to Antibiotics,[1]; Concentration 10 µg,+
CN(C)[C@@H]1C(O)=C(C(N)=O)C(=O)[C@@]2(O)C(O)=C3C(=O)c4c(O)cccc4[C@@](C)(O)[C@H]3C[C@@H]12 [Tetracycline],Resistance to Antibiotics,[1]; Concentration 30 µg,-
CC[C@H](C)[C@H](N)C1=N[C@H](C(=O)N[C@@H](CC(C)C)C(=O)N[C@H](CCC(=O)O)C(=O)N[C@H](C(=O)N[C@H]2CCCCNC(=O)[C@H](CC(N)=O)NC(=O)[C@@H](CC(=O)O)NC(=O)[C@H](Cc3cnc[nH]3)NC(=O)[C@@H](Cc3ccccc3)NC(=O)[C@H]([C@@H](C)CC)NC(=O)[C@@H](CCCN)NC2=O)[C@@H](C)CC)CS1 [Bacitracin] ({Ileψ(thiazoline)Cys}-L[dE]IK[dOrn]I[dF]H[dD]N; lactam 4-C),Resistance to Antibiotics,[1]; Concentration 10 units,-
same,Resistance to Antibiotics,[2]; Concentration 10 units,+
